Assay results published in patent US6235872A, “Proapoptotic peptides dependence polypeptides and methods of use” (The Burnham Institute, priority 1998, dated 2001).
“Also recorded” adds a separate entry of the source. Where no end group is shown, it is not given here.

Assays:
isolated mitochondria = assay: Mitochondrial swelling followed spectrophotometrically at 520 nm (FIG. 3A); format: biochemical, rats; conditions: 0.5 mM, positive control
Method: Consistent with these observations, molecules such as Bcl-2 which inhibit apoptosis inhibit mitochondrial swelling. Briefly, mitochondria were prepared as previously described (Ellerby et al. J. Neurosci. 17:6165-6178 (1997)) except for the following modifications. The rats were sacrificed by CO2 inhalation without fasting and the mitochondria were isolated in MIB buffer (210 mM mannitol, 70 mM sucrose, 0.05% BSA, 1 mM EGTA, 5 mM Hepes-NaOH, pH 7.4). The mitochondrial pellet samples resuspended in MCB buffer (300 mM mannitol, 10 mM KH2 PO4, 0.1% BSA, pH 7.2) and applied to a discontinuous sucrose gradient (1.6 M sucrose, 10 mM KH2 PO4, pH 7.5; 1.2 M sucrose, 10 mM KH2 PO4, pH 7.5) were centrifuged at 48,500 g for 1 hour. […] The mitochondrial pellets were collected, resuspended in MSB, and stored on ice. After the addition of 50 μM of the peptide, mitochondrial swelling was followed spectrophotometrically at 520 nm (Petronilli et al. J. Biol. Chem. 269:16638-16642 (1994)) in CFS (220 mM mannitol, 68 mM sucrose, 2 mM NaCl, 5 mM KH2 PO4, 2 mM MgCl2, 5 mM succinate, 10 mM Hepes-NaOH, 2 mM ATP, 50 μg/ml creatine kinase, 10 mM phosphocreatine, 0.75 μg/ml rotenone, pH 7.4).

293T cells = assay: Apoptosis in 293T cells expressing FKBP/p75^NTR chimeras with or without FK1012; format: cell-based; conditions: 2 μM FK1012, 35 μM tamoxifen
Description: The FKBP12-tagging vector MF1E/MF3E, which included an amino-terminal myristylation site for membrane insertion (Spencer et al. Science 262:1019-1024 (1993)), contains one and three repeats of the FK-binding protein (FKBP) sequence. The FKBP12 vector served as a PCR template and was amplified using primers flanked by Nhe I (5' primer) or Nde I (3' primer) sites to produce DNA fragments consisting of one or three FK-binding domains (FKBP). The resulting PCR products contained either one or three FKBP sequence repeats and were subcloned into pcDNA3.1. A DNA fragment encoding an intracytoplasmic form of p75^NTR was removed from the pUC18-p75 plasmid by digestion with Nde I and Bam HI, and the DNA fragment was ligated to the carboxy-terminus of the FKBP sequences within the pcDNA3.1-FKBP construct. The resulting two expression vectors encoded FKBP/p75^NTR chimeras comprising one or three FKBP repeats at the amino-terminus fused to an intracytoplasmic form of p75^NTR at the carboxy-terminus.
The stimulation of cellular apoptosis by Fas and TNFR I is induced by ligand binding which triggers multimerization of Fas and TNFR I. The assembly of such a death-inducing signaling complex contributes to cellular apoptosis by activating caspase-8. The effect that dimerization or multimerization has on the ability of p75^NTR to stimulate apoptosis was analyzed. […]

PC3 = assay: Cell viability after peptide treatment, PC3; format: cell-based, human; conditions: 50 μM stated for tat-GG-SATLDALLAALRRI; 18 hours
Method: (§1) Briefly, NTera 2 human neuronal cells, R2 neural cells, CSM14.1 neural cells, LNCaP cells, SH-SY5Y human neuroblastoma cells and PC12 NRA5 cells were grown in DMEM/F12 (50/50) supplemented with 5% fetal bovine serum and seeded onto 96-well plates. […] The purified peptides were dissolved in tissue culture grade water and diluted to 50 μM and 100 μM in serum free medium and directly added to the cells in 96-well plates. The cells were incubated at 37° C. for 18 hours and 20 μM propidium iodide was added. Cell viability was determined using a fluorimeter as previously described (Kane et al. J. Neurosci. Res. 40:269-275 (1995)).

[1] = tested on: NTera 2 human neuronal cells; assay: Cell viability after peptide treatment, NTera 2; format: cell-based; conditions: 50 μM stated for tat-GG-SATLDALLAALRRI; 18 hours
Method: as §1

PC12 NRA5 cells = conditions: 100 μM peptide; 18 hours
Method: Briefly, NTera 2 human neuronal cells, R2 neural cells, CSM14.1 neural cells, LNCaP cells, SH-SY5Y human neuroblastoma cells and PC12 NRA5 cells were grown in DMEM/F12 (50/50) supplemented with 5% fetal bovine serum and seeded onto 96-well plates. The peptides were synthesized and HPLC purified (Coast Scientific, San Diego, Calif.). The purified peptides were dissolved in tissue culture grade water and diluted to 50 μM and 100 μM in serum free medium and directly added to the cells in 96-well plates. The cells were incubated at 37° C. for 18 hours and 20 μM propidium iodide was added. Cell viability was determined using a fluorimeter as previously described (Kane et al. J. Neurosci. Res. 40:269-275 (1995)).

LNCaP cells = assay: Cell viability after peptide treatment, LNCaP; format: cell-based; conditions: 50 μM stated for tat-GG-SATLDALLAALRRI; 18 hours
Method: as §1

COS-7 = assay: Cell viability after peptide treatment, COS-7; format: cell-based; conditions: 50 μM stated for tat-GG-SATLDALLAALRRI; 18 hours
Method: as §1

[2] = tested on: NTera 2, R2, CSM14.1, LNCaP, SH-SY5Y and PC12 NRA5 cells; assay: Induction of cell death by peptides added to cells (propidium iodide, Table 1); format: cell-based; conditions: peptide 50 μM and 100 μM in serum free medium, 18 hours
Method: A region of a dependence polypeptide that mediates apoptosis in cells was analyzed for its ability to stimulate apoptosis in cells. […] The effect of replacing leucine with lysine at position 7 (purple, […]; SEQ ID NO:41; tat-purple, tat-GG-[…]; SEQ ID NO:42), removing the carboxy-terminal "RRI" sequence (gray, SATLDALLAAL; SEQ ID NO:43; tat-gray, tat-GG--SATLDALLAAL; SEQ ID NO:44) or amino-terminal "SATLD" sequence (green; […]; SEQ ID NO:45) on the proapoptotic activity of a dependence peptide was examined. […] The 12 amino acid HIV tat protein fragment ([…]; SEQ ID NO:52; hereinafter termed "tat"), which facilitates cellular entry, also was included on the amino terminus of some of the peptides tested. […] For convenience, the hyphen in the above amino acid sequences is a nomenclature intended to set apart the proapoptotic dependence peptides and variants thereof or control peptides from other amino acid residues contained in the peptide.

[3] = tested on: SH-SY5Y human neuroblastoma cells; assay: Cell death by tat-linked peptides and mutated variants in SH-SY5Y cells (FIG. 2); format: cell-based; conditions: relative to unmutated tat-GG-SATLDALLAALRRI
Method: To further analyze the effect of particular point mutations on apoptosis, additional studies employing dependence peptides and mutated variants linked to tat were performed in SH-SY5Y cells. The results shown in FIG. 2 are of studies in which quadruplicate samples were averaged, and the studies were repeated 2 to 10 times for each peptide. Each column represents the percentage cell death and the bars indicate the standard error. The amount of peptide added to the cells is indicated above each column.

Molecule | cell viability, PC3 (PC3) [%] | cell viability, NTera 2 [1] [%] | cell viability, LNCaP (LNCaP cells) [%] | cell viability, COS-7 (COS-7) [%] | further results
[Ca+2].[Cl-].[Cl-] [calcium chloride] |  |  |  |  | mitochondrial swelling (decreased absorbance at 520 nm) (isolated mitochondria): rapid swelling
FK1012 |  |  |  |  | apoptosis of cells containing single copy or triple copy FKBP/p75^NTR protein chimera (293T cells): apoptosis was blocked
GRKKRRQRRRPPGGDLSLARLATARLAI [tat-yellow, reference compound] | 97 |  |  |  | 
GRKKRRQRRRPPGGKDRNLRRITRMVLV [tat-turquoise, reference compound] | 87.9 | 67.6 | 46.7 |  | cell viability, NRA 5 cells (PC12 NRA5 cells): 95.7%
GRKKRRQRRRPPGGSATLDAKLAALRRI [tat-purple] | 92.8 | 69.3 |  | 97.8 | 
GRKKRRQRRRPPGGSATLDALLAAL [tat-gray, tat-GG-SATLDALLAAL] | 90.5 | 76.7 | 59.1 | 97.1 | 
GRKKRRQRRRPPGGSATLDALLAALRRI [tat-blue] | 4.2 | 1.3 | 0 | 1.5 | cell viability, NRA 5 cells (PC12 NRA5 cells): 0%
INLKALAALAKKIL [MP] |  |  |  |  | Effect on apoptosis [2]: underwent apoptosis; also recorded: Apoptotic
tat-GG-SATLDALLAALOOI (GRKKRRQRRRPPGGSATLDALLAALQQI) [arginines at positions 12 and 13 replaced with glutamine] |  |  |  |  | decrease of the ability to stimulate SH-SY5Y cell death [3]: 80%
